Test [1] deals with constitutive active colorectal cancer cell (CRC) Wnt pathway. The test is described as follows: HCT116 TOPFlash cellular reporter assay (Super TopFlash vector, luciferase). Type of test: cell-based. The conditions noted are these: Homo sapiens, HCT-116; HCT116 Super TopFlash reporter cells, 36 hours incubation, dilution series 50 μM to 15 nM, luciferase expression. As for the experimental part: In order to discover and characterize small molecules which inhibit the constitutive active colorectal cancer cell (CRC) Wnt pathway, a cellular reporter assay was employed. The corresponding assay cell was generated by transfection of the colorectal cancer cell line HCT116 (ATCC, #CCL-247) with the Super TopFlash vector (Morin, Science 275, 1997, 1787-1790; Molenaar et al., Cell 86 (3), 1996, 391-399). The HCT116 cell line is cultivated at 37° C. and 5% CO2 in DMEM/F-12 (Life Technologies, #11320-074), supplemented with 2 mM glutamine, 20 mM HEPES, 1.4 mM pyruvate, 0.15% Na-bicarbonate and 10% foetal bovine serum (GIBCO, #10270), this cancer cell line is pathophysiological relevant since it carries a deletion of position S45 in the β-catenin gene, leading to constitutive active Wnt signaling. Stable transfectants were generated by cotransfection with pcDNA3 and selection of stable transfected cells with 1 mg/ml G418.
(§1) In preparation of the assay, the two cell lines were plated 24 hours before at 10000 cells per well of a 384 micro titre plate (MTP) in 30 μL growth medium. Selective inhibitory activity for small molecules on the mutated Wnt pathway was determined after parallel incubation of both (TOP and FOP) HCT116 reporter cell lines with a compound dilution series from 50 μM to 15 nM in steps of 3.16-fold dilutions in CAFTY buffer (130 mM NaCl, 5 mM KCl, 20 mM HEPES, 1 mM MgCl2, 5 mM NaHCO3, pH 7.4) containing 2 mM Ca^2+ and 0.01% BSA. The compounds were thereby serially prediluted in 100% DMSO and thereafter in addition 50 fold into the CAFTY compound dilution buffer (described above). From this dilution 10 μL were added to the cells in 30 μL growth medium and incubated for 36 hours at 37° C. and 5% CO2.
On the technique in general: In a reporter assay the amount or activity of a reporter protein is the signal.

Test [2] deals with HCT116 cells cotransfected with the FOP control vector (non-functional TCF elements). Nature of the test: HCT116 FOPFlash control reporter assay (FOP control vector, luciferase). Format: cell-based. To be noted: Homo sapiens, HCT-116, 36 hours incubation, dilution series 50 μM to 15 nM, luciferase expression. The procedure: In a parallel approach, HCT116 cells were cotransfected with the FOP control vector and pcDNA3. The FOP vector is identical to the TOP construct, but it contains instead of functional TCF elements a randomized, non-functional sequence. For this transfection a stable transfected cell line was generated as well.
as §1

From US20180028507A1, “3-CARBAMOYLPHENYL-4-CARBOXAMIDE AND ISOPHTALAMIDE DERIVATIVES AS INHIBITORS OF THE WNT SIGNALLING PATHWAY” (Bayer Pharma Aktiengesellschaft, priority 2015, published 2018) come the findings set out here.

Where only a bound is given, the exact number is not on record here.

On to `COc1ccc(C(=O)Nc2ccc(-c3ccccc3F)nc2)cc1C(=O)Nc1ccncc1` [Example 56, N^1-[6-(2-fluorophenyl)pyridin-3-yl]-4-methoxy-N^3-(pyridin-4-yl)isophthalamide], for which the half-maximal inhibitory concentration (IC50) (commonly the midpoint of a concentration-inhibition curve) in test [1] came to 1.8 µM; in test [2] it was 8 µM.
For `O=C(Nc1ccc(-c2ccccc2F)nc1)c1ccc(OC(F)(F)F)c(C(=O)Nc2cccnc2)c1` [Example 57, N^1-[6-(2-fluorophenyl)pyridin-3-yl]-N^3-(pyridin-3-yl)-4-(trifluoromethoxy) isophthalamide] the same measures were 2.6 µM and 11 µM.
Taken in the same sequence, the figures for `Cc1ncccc1NC(=O)c1cc(C(=O)Nc2ccc(-c3ccccc3F)nc2)ccc1OC(F)(F)F` [Example 58, N^1-[6-(2-fluorophenyl)pyridin-3-yl]-N^3-(2-methylpyridin-3-yl)-4-(trifluoromethoxy) isophthalamide] were 1.9 µM and 6.6 µM.
On to `Cc1cc(NC(=O)c2cc(C(=O)Nc3ccc(-c4ccccc4F)nc3)ccc2OC(F)(F)F)ccn1` [Example 59, N^1-[6-(2-fluorophenyl)pyridin-3-yl]-N^3-(2-methylpyridin-4-yl)-4-(trifluoromethoxy) isophthalamide], for which the IC50 in test [1] stood at 1.7 µM; in test [2], 5.5 µM.
As for `COc1ccc(C(=O)Nc2ccc(-c3ccccc3F)nc2)cc1C(=O)Nc1cccnc1` [Example 60, N^1-[6-(2-fluorophenyl)pyridin-3-yl]-4-methoxy-N^3-(pyridin-3-yl)isophthalamide], the figures for the IC50 in test [1] and in test [2] were 6.05 µM and 11 µM, respectively.
`COc1ccc(C(=O)Nc2ccc(-c3ccccc3)cc2)cc1C(=O)NCc1ccc(N)nc1` [Example 61, N^3-[(6-aminopyridin-3-yl)methyl]-N^1-(bipheny-4-yl)-4-methoxyisophthalamide]: the half-maximal inhibitory concentration (IC50) in test [1] is 34 µM; in test [2], not below 50 µM.
Taken in the same sequence, the figures for `COc1ccc(C(=O)Nc2ccc(-c3ccccc3)cc2)cc1C(=O)Nc1cccnc1C` [Example 62, N^1-(biphenyl-4-yl)-4-methoxy-N^3-(2-methylpyridin-3-yl)isophthalamide] were 45 µM and not below 50 µM.
Taken in the same sequence, the figures for `COc1ccc(C(=O)Nc2ccc(-c3ccccc3F)nc2)cc1C(=O)Nc1cncc(C)c1` [Example 63, N^1-[6-(2-fluorophenyl)pyridin-3-yl]-4-methoxy-N^3-(5-methylpyridin-3-yl)isophthalamide] were 26.7 µM and not below 50 µM.
